These results are taken from PMC6023986, “Interactions Between Emodin and Efflux Transporters on Rat Enterocyte by a Validated Ussing Chamber Technique” (Frontiers in Pharmacology, 2018).

The target in series [1] is T1, MRP2 (Rattus norvegicus, UniProt Q63120). Put plainly: Ussing chamber bidirectional transport, model validation for MRP2 (pravastatin substrate, MK571 inhibitor). The arrangement: intestinal segments including duodenum, jejunum, ileum, and colon from anesthetized rats were immediately removed by surgery; from tissue; host or cells: stripped rat intestine (jejunum and ileum in validation; jejunum for the emodin studies). It counts as in vitro ADME. Particulars: rat. The text has this: (§1) The four intestinal segments including duodenum, jejunum, ileum, and colon from anesthetized rats were immediately removed by surgery and washed with KRB solution. Each section of the intestinal segments was then placed in cold (on ice), bubbled (O2:CO2 95:5) KRB buffer. The four intestinal segments were then cut into 2 cm pieces, respectively, and serosas were removed by blunt dissection. Peyer’s patches were excluded from the experiment by visually identified. The stripped tissues were mounted in chambers with exposed surface area of 0.49 cm^2. Temperature of the chambers was maintained at 37 ± 0.5°C. Each of the half-cells in the chambers was filled with 5 mL fresh KRB buffer (pH 6.5). Tissue viability was continuously controlled by potential difference (PD).
T1 sequence (Q63120 whole entry): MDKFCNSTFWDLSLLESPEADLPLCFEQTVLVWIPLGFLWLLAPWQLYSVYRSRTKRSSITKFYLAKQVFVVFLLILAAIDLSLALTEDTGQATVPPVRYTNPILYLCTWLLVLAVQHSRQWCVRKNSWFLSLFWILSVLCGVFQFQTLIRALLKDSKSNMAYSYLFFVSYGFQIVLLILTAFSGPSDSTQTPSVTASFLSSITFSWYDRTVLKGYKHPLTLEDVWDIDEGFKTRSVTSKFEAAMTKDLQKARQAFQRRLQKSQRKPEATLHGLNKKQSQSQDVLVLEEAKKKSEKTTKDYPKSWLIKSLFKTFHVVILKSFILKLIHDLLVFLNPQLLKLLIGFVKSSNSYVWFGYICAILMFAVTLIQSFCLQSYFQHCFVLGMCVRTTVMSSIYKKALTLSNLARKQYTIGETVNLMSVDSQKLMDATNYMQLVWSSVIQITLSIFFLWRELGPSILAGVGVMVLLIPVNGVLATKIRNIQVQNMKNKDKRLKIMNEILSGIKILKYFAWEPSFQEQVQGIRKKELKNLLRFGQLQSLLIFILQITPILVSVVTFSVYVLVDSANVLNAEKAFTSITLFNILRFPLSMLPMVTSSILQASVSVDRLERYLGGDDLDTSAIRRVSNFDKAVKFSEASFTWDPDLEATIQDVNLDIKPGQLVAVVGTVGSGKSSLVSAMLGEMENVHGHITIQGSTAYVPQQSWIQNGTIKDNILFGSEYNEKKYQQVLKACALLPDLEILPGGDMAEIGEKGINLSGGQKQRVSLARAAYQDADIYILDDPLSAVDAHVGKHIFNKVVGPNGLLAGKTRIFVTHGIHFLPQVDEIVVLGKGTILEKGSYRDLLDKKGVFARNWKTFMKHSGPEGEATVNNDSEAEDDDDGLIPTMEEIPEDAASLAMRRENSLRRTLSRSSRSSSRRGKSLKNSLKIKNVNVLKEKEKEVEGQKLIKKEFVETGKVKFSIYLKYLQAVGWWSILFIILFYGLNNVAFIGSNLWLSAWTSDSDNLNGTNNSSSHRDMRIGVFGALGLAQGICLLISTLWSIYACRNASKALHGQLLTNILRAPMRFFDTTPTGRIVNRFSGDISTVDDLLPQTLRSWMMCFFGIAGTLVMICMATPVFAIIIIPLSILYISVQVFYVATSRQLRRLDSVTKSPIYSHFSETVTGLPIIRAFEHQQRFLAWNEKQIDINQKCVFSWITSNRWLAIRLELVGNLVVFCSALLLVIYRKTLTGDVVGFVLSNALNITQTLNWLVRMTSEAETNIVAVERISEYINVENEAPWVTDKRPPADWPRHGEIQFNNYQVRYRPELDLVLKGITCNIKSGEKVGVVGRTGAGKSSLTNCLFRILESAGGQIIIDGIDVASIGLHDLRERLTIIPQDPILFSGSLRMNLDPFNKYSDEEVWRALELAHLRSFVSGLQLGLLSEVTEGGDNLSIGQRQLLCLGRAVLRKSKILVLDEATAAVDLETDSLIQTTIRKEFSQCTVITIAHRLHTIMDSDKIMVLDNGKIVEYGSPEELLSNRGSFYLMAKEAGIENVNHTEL
Digoxin, pravastatin, and teniposide were employed as the test substrates of P-gp, MRP2, and MRP3. […] The experiments were started after 30 min equilibration time, by changing the KRB buffer on both sides; 5 mL KRB solution with different test compounds was filled in the mucosal or serosal compartment; meanwhile, equal volume fresh buffer was added to the other compartment. […] The bidirectional transport studies with specific inhibitors were assessed to validate this model whether or not suitable for P-gp, MRP2, and MRP3 studies.
(§2) Frozen samples were adequately vortexed after thawing at the room temperature; 10 μL suitable IS solution was added to 200 μL samples; 200 μL methanol was added after a thorough vortex mixing for 30 s. The mixtures were then vortexed for 30 s and centrifuged at 15,000 rpm for 30 min. Finally, 5 μL of supernatant was injected into the LC-MS/MS system.
The quantifications of the compounds were performed by the TSQ Quantum Ultra Triple Quadrupole LC-MS/MS system from Thermo Fisher Scientific. […] Adaptive gradient elution methods were applied for the analytes. The flow rate of the mobile phase was kept at 0.2 mL min^-1. Flow was directed to the ion spray interface. All measurements were carried out in negative ESI mode. Ion spray voltage was -2500 V. Vaporizer and capillary temperatures were set at 250 and 350°C, respectively. Auto sampler temperature was set at 10°C. Sheath gas and aux gas were set at 30 and 15 Arb, respectively. […] Peak integrations and calibrations were carried out using LC Quan 2.5.2 software from Thermo Fisher Scientific.
(§3) where Cn (nM) is the concentration of the drug at the time point (n), Q (nM) is the accumulated absorption amount, A is the exposed surface area of the intestine (0.49 cm^2), dQ/dt (nM⋅s^-1) is the amount of the drug transported, and C0 (nM) is the initial concentration of the test drug. Experiments were performed in batches, so control groups were set as one for each batch.

For series [2], the target named is T1, MRP2. Nature of the series: Influence of emodin on MRP2 function: pravastatin bidirectional transport in the presence of emodin (Ussing chamber). More on the design: intestinal segments including duodenum, jejunum, ileum, and colon from anesthetized rats were immediately removed by surgery; from tissue; host or cells: stripped rat intestine (jejunum and ileum in validation; jejunum for the emodin studies). The class given is in vitro ADME. Particulars: rat jejunum; for Papp at 47 μM: rat.
Excerpt: as §1, with “(PD). Tissue with electrical values less than 2 mV was refused ([Moazed and Hiebert, 2007]; [Heinen et al., 2013]).” for “(PD).”
In this study, the effects of the three efflux transporters on emodin intestinal absorption were investigated. Meanwhile, the influence of emodin on intestinal P-gp, MRP2, and MRP3 functions were also discussed. Solutions with three concentrations (low, middle, and high) of emodin were filled in the mucosal or serosal compartment to measure the bidirectional transport characteristic. […] In the emodin impact experiments, digoxin, pravastatin, and teniposide were employed as P-gp, MRP2, and MRP3 substrates. Changes of the bidirectional transport characteristic were measured before and after adding emodin to the mucosal side.
as §2
The quantifications of the compounds were performed by the TSQ Quantum Ultra Triple Quadrupole LC-MS/MS system from Thermo Fisher Scientific. Chromatography was carried out using an Agilent Poroshell 120 SB-C18 (2.7 μm, 2.1 mm × 100 mm) column with a Phenomenex AFO-8497 C18 pre-column, operating at 30°C. Adaptive gradient elution methods were applied for the analytes. The flow rate of the mobile phase was kept at 0.2 mL min^-1. Flow was directed to the ion spray interface. All measurements were carried out in negative ESI mode. Ion spray voltage was -2500 V. Vaporizer and capillary temperatures were set at 250 and 350°C, respectively. Auto sampler temperature was set at 10°C. Sheath gas and aux gas were set at 30 and 15 Arb, respectively. […] Peak integrations and calibrations were carried out using LC Quan 2.5.2 software from Thermo Fisher Scientific.
The Q (accumulative quantity), Papp (apparent permeability), Er (efflux ratio), Pr (Papp ratio), and Err (Er ratio) across the excited rat intestinal segments in the Ussing chamber were calculated using the following equations ([Li et al., 2012]; [Huang et al., 2016]): […]
as §3

Where two headings read alike, the source gives them in different places.

As usually defined, the Papp is the rate of passage across a membrane or cell layer, normalised by area and donor concentration.

Take `CC[C@H](C)C(=O)O[C@H]1C[C@H](O)C=C2C=C[C@H](C)[C@H](CC[C@@H](O)C[C@@H](O)CC(=O)O)[C@H]21` [Pravastatin]: the Papp on MRP2 [1] (pH 6.5, rat duodenum, without inhibitor, read-out: Papp M-S, control) came to 124 ± 67.3 ×10⁻⁶ cm/s; at MRP2 [1] (pH 6.5, rat duodenum, without inhibitor, read-out: Papp S-M, control), 287 ± 165 ×10⁻⁶ cm/s; on MRP2 [1] (pH 6.5, rat ileum, without inhibitor, read-out: Papp M-S, control), 122 ± 52.5 ×10⁻⁶ cm/s; at MRP2 [1] (pH 6.5, rat ileum, without inhibitor, read-out: Papp S-M, control), 678 ± 325 ×10⁻⁶ cm/s; on MRP2 [1] (pH 6.5, rat jejunum, without inhibitor, read-out: Papp M-S, control) it was 146 ± 39.4 ×10⁻⁶ cm/s; on MRP2 [1] (pH 6.5, rat jejunum, without inhibitor, read-out: Papp S-M, control), 496 ± 226 ×10⁻⁶ cm/s. The Papp worked out at 127 ± 33.4 ×10⁻⁶ cm/s on MRP2 [1] (pH 6.5, with MK571 186 μM on mucosal side, rat jejunum, with MK571 186 μM on mucosal side, read-out: Papp S-M, with inhibitor); 77.9 ± 14.8 ×10⁻⁶ cm/s on MRP2 [1] (pH 6.5, with MK571 186 μM, mucosal side, rat duodenum, with MK571 186 μM on mucosal side, read-out: Papp M-S, with inhibitor); 112 ± 52.7 ×10⁻⁶ cm/s on MRP2 [1] (pH 6.5, with MK571 186 μM, mucosal side, rat duodenum, with MK571 186 μM on mucosal side, read-out: Papp S-M, with inhibitor); 124 ± 67.9 ×10⁻⁶ cm/s at MRP2 [1] (pH 6.5, with MK571 186 μM, mucosal side, rat ileum, with MK571 186 μM on mucosal side, read-out: Papp M-S, with inhibitor); 224 ± 141 ×10⁻⁶ cm/s on MRP2 [1] (pH 6.5, with MK571 186 μM, mucosal side, rat ileum, with MK571 186 μM on mucosal side, read-out: Papp S-M, with inhibitor); 107 ± 26.8 ×10⁻⁶ cm/s at MRP2 [1] (pH 6.5, with MK571 186 μM, mucosal side, rat jejunum, with MK571 186 μM on mucosal side, read-out: Papp M-S, with inhibitor). Further, the “Change of Papp and Er values of pravastatin after emodin added” value at MRP2 [2] (pravastatin 47 μM, emodin 185, 370, 740 μM) is reported as “No significant differences”. Besides, the Papp at 47 μM at MRP2 [2] (pH 6.5, pravastatin 47 μM, without emodin, read-out: Papp M-S, control) came to 64.5 ± 27.9 ×10⁻⁶ cm/s; at MRP2 [2] (pH 6.5, pravastatin 47 μM, without emodin, read-out: Papp S-M, control), 82.2 ± 40.4 ×10⁻⁶ cm/s; at MRP2 [2] (pH 6.5, with emodin 185 μM on mucosal side, pravastatin 47 μM, emodin 185 μM on mucosal side, read-out: Papp M-S in the presence of emodin), 123 ± 19.9 ×10⁻⁶ cm/s; on MRP2 [2] (pH 6.5, with emodin 185 μM on mucosal side, pravastatin 47 μM, emodin 185 μM on mucosal side, read-out: Papp S-M in the presence of emodin) it was 70.3 ± 19.8 ×10⁻⁶ cm/s; on MRP2 [2] (pH 6.5, with emodin 370 μM on mucosal side, pravastatin 47 μM, emodin 370 μM on mucosal side, read-out: Papp M-S in the presence of emodin), 106 ± 40.3 ×10⁻⁶ cm/s; at MRP2 [2] (pH 6.5, with emodin 370 μM on mucosal side, pravastatin 47 μM, emodin 370 μM on mucosal side, read-out: Papp S-M in the presence of emodin), 90.8 ± 12.7 ×10⁻⁶ cm/s. For the same molecule, the Papp at 47 μM at MRP2 [2] (pH 6.5, with emodin 740 μM on mucosal side, pravastatin 47 μM, emodin 740 μM on mucosal side, read-out: Papp M-S in the presence of emodin) was 93.8 ± 28.7 ×10⁻⁶ cm/s; on MRP2 [2] (pH 6.5, with emodin 740 μM on mucosal side, pravastatin 47 μM, emodin 740 μM on mucosal side, read-out: Papp S-M in the presence of emodin) it was 105 ± 27.3 ×10⁻⁶ cm/s.
